For assay [1], the system named is PAF-induced bronchoconstriction. Briefly: Effect on platelet activating factor (PAF)-induced bronchoconstriction in guinea pig (Konzett-Roessler method). Conditions: P.O., one hour before PAF (1 µg/kg i.v.), male Hartley guinea pigs. The class given is in vivo. Here is the method: Male Hartley guinea pigs (body weights about 500 g) were used. Bronchoconstriction induced by PAF (1 µg/kg i.v.) in guinea pigs was measured according to the method of Konzett-Roessler. The guinea pig immobilized in the dorsal position, tracheotomy was anesthetized with urethane (1.5 g/kg i.v.) and the trachea was connected through a cannula to a respirator. The side branch of the tracheal cannula was connected to a broncho transducer (Model 7020, Ugobasile). The volume of overflow air was recorded on a rectigraph (Recte-Hori-8S, San-ei Sokki) through the brancho transducer. After guinea pig was given gallamine (1 mg/kg i.v.), the guinea pig was treated by PAF (1 µg/kg). The drug suspended in a 5% solution of gum arabic was administered orally in a dose of 3 mg/kg or 1 mg/kg one hour before PAF treatment.

For the next assay, the system named is Guinea Pig Eosinophils. Nature of the assay: Chemotaxis inhibition assay (LTB4-induced chemotaxis of guinea pig eosinophils). The class given is cell-based. The settings on record: test drug final concentration 10^-5 M, LTB4 10^-8 M, 2 hours; for inhibition at 10 µM: Cavia porcellus, Eosinophil, read-out: Chemotaxis Inhibition Rate (%). Here is the method:
Male Hartley guinea pigs (body weights approx. 300 g) were intraperitoneally treated with 2 ml of horse serum (Whittaker Bioproducts) once a week for 8 consecutive weeks. Forty-eight (48) hours after the last treatment, 75 ml of physiological saline was infused into the peritoneal cavity and the lavage was collected and centrifuged at 400 G (1500 rpm) for 5 minutes. The pellet was suspended in 5 ml of Percoll discontinuous density, gradients (specific gravity d=1.07), layered on top of the Percoll suspensions (specific gravity d=1.112:5 ml, d=1.095:10 ml, d=1.090:10 ml, d=1.085:7 ml) and centrifuged (18°C) at 1000 G (2200 rpm) for 30 minutes. The cell layer formed in the boundary zone between the d=1.112 and d=1.095 layers was collected. The collected cell sediment was subjected to hypotonic treatment (suspended in water for 30 seconds) to remove the contaminant erythrocytes.
The sediment was washed three times with Hanks solution containing 10 mM Hepes (Dojin Kagaku) (Hanks-Hepes) and suspended in Hanks-Hepes containing 2% (w/v) human serum albumin (Wako Pure Chemical) (Hanks-Hepes-HSA) at a concentration of 5.56 x 10^6 celles/ml. The eosinophil purity was 92-96% and the viability of eosinophils was not less than 98%.
To a 24-well petri dish, which serves as a lower chamber, 600 µl of LTB4 (final concentration 10^-8 M, Cascade Biochemical Ltd.) in suspension in Hanks-Hepes-HSA solution, was transferred, followed by incubation at 37°C for 30 minutes in carbon dioxide incubator. Separately, 200 µl (5 × 10^6 cells/ml) of eosinophil suspension, previously incubated at 37°C for 15 minutes in a constant-temperature chamber, was added to Chemotaxicell (polycarbonate membrane, pore size 3 µm, thickness 10 µm), which serves as an upper chamber, after the upper chamber was attached to the 24-well petri dish. After 2 hours of reaction in the carbon dioxide incubator, the Chemotaxicell was removed; 60 µl of a 2% (w/v) solution of EDTA in physiological saline was added to the liquid in the lower chamber. After the mixture was ice cooled, the cells migrating into the lower chamber liquid were counted using a blood cell counter (Coulter Counter (trade name)). The test drug, dissolved in dimethyl formamide (DMF), was added to both the upper and lower chambers to a final concentration of 10^-5 M. [formula]

As to `CC(C)c1cc2ncnn2nc1OCC(C)(C)CS(N)(=O)=O` [Example 3, 6-(2,2-dimethyl-3-sulfamoyl-1-propoxy)-7-isopropyl[1,2,4]triazolo[1,5-b]pyridazine], the “% Inhibition of PAF-induced bronchoconstriction” value (“% Inhibition” below) in assay [1] (1 mg/kg) is 72%.
For `CC(C)(COc1nn2ncnc2cc1C(C)(C)C)CS(N)(=O)=O` [Example 6, 6-(2,2-dimethyl-3-sulfamoyl-1-propoxy)-7-t-butyl[1,2,4]triazolo[1.5-b]pyridazine], the “% Inhibition” value in assay [1] (1 mg/kg) came out at 43%; in assay [1] (3 mg/kg) it was 83%. Besides, the “Chemotaxis Inhibition Rate (%)” value with Guinea Pig Eosinophils is listed as 38%.
In the case of `CC(C)Cc1cc2ncnn2nc1OCC(C)(C)CS(N)(=O)=O` [Example 5, 6-(2,2-dimethyl-3-sulfamoyl-1-propoxy)-7-isobutyl[1,2,4]triazolo[1,5-b]pyridazine], in the assay with Guinea Pig Eosinophils, the inhibition (as a rule, the percentage by which the read-out fell short of the control) at 10 µM came to 27%.
Regarding `CCC(CC)(COc1nn2ncnc2cc1C(C)C)CS(N)(=O)=O` [Example 4, 6-(2,2-diethyl-3-sulfamoyl-1-propoxy)-7-isopropyl[1,2,4]triazolo[1,5-b]pyridazine], in assay [1] (1 mg/kg), the “% Inhibition” value was determined as 60%. In addition, the inhibition at 10 µM in the assay with Guinea Pig Eosinophils is 23%.
For the compound `CCCCCCc1cc2ncnn2nc1OCC(C)(C)CS(N)(=O)=O` [Example 7, 6-(2,2-dimethyl-3-sulfamoyl-1-propoxy)-7-n-hexyl[1,2,4]triazolo[1,5-b]pyridazine], in the assay with Guinea Pig Eosinophils, the inhibition at 10 µM was 24%.
`CCc1cc2ncnn2nc1OCC(C)(C)CS(N)(=O)=O` [Example 1, 6-(2,2-dimethyl-3-sulfamoyl-l-propoxy)-7-ethyl[1,2,4]triazolo[1,5-b]pyridazine]: the “% Inhibition” value in assay [1] (1 mg/kg) is given as 70%. Moreover, the “Chemotaxis Inhibition Rate (%)” value in the assay with Guinea Pig Eosinophils is on record as 35%.
On to `Cc1cc2ncnn2nc1OCC(C)(C)CS(N)(=O)=O` [Reference compound, 6-(2,2-dimethyl-3-sulfamoyl-1-propoxy)-7-methyl[1,2,4]triazolo[1,5-b]pyridazine, reference compound], for which the “% Inhibition” value in assay [1] (3 mg/kg) worked out at 25%. Also, the inhibition at 10 µM with Guinea Pig Eosinophils was determined as 12%.
In the case of `CCCc1cc2ncnn2nc1OCC(C)(C)CS(N)(=O)=O` [Example 2, 6-(2,2-dimethyl-3-sulfamoyl-1-propoxy)-7-n-propyl[1,2,4]triazolo[1,5-b]pyridazine], the “% Inhibition” value in assay [1] (1 mg/kg) turned out to be 67%. In addition, the inhibition at 10 µM in the assay with Guinea Pig Eosinophils is 24%.

For the origin of these results see patent EP0781283B1, “TRIAZOLOPYRIDAZINES PROCESS AND INTERMEDIATES FOR THEIR PREPARATION AND THEIR USE AS MEDICAMENTS” (Takeda Chemical Industries, Ltd., priority 1994, dated 1996).
